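Cells were grown in 96-well plates and exposed to each compound for 48 hours at five concentrations; endpoints were interpolated linearly between bracketing concentrations, or set to the highest concentration if not reached. Abbreviation: GI50, concentration required for 50% inhibition of growth.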 Active and inactive are the calls of the source. Cut-off read from the data, not from the text of the source: active = GI50 up to about 1.1 µM and inactive = higher.
Key:
Test in all cases: growth of human tumour cells (NCI), 48 h
[1] = test system: OVCAR-5
[2] = test system: SF-295
[3] = test system: OVCAR-3
[4] = test system: HOP-92
[5] = test system: EKVX
[6] = test system: A549
[7] = test system: UACC-62
[8] = test system: HOP-62
[9] = test system: NCI-H23
[10] = test system: MOLT-4
[11] = test system: NCI-H226
[12] = test system: RXF 393
[13] = test system: HCC 2998
[14] = test system: NCI-H522
[15] = test system: KM12
[16] = test system: SK-MEL-2
[17] = test system: IGROV-1
[18] = test system: SK-MEL-5
[19] = test system: TK-10

Structure (SMILES)	GI50 [1]	GI50 [2]	GI50 [3]	GI50 [4]	GI50 [5]	GI50 [6]	GI50 [7]	GI50 [8]	GI50 [9]	GI50 [10]	GI50 [11]	GI50 [12]	GI50 [13]	GI50 [14]	GI50 [15]	GI50 [16]	GI50 [17]	GI50 [18]	GI50 [19]
COC(=O)c1c(CC#N)cccc1CC#N	> 100 µM (inactive)	> 100 µM (inactive)	> 100 µM (inactive)	> 100 µM (inactive)	> 100 µM (inactive)	> 100 µM (inactive)	> 100 µM (inactive)	> 100 µM (inactive)	> 100 µM (inactive)	> 100 µM (inactive)	> 100 µM (inactive)	> 100 µM (inactive)	> 100 µM (inactive)	> 100 µM (inactive)	> 100 µM (inactive)	> 100 µM (inactive)	> 100 µM (inactive)	–	–
CC(=O)OC[C@]1(O)CC[C@@]23CC1C[C@@H]2CCC1C(C)(C)CCC[C@@]13C (stereo not given in full)	11.3 µM (inactive)	17.6 µM (inactive)	17.1 µM (inactive)	14.4 µM (inactive)	–	15.8 µM (inactive)	13.4 µM (inactive)	17.4 µM (inactive)	12.8 µM (inactive)	1.77 µM (inactive)	15.8 µM (inactive)	7.11 µM (inactive)	17.4 µM (inactive)	2.64 µM (inactive)	13 µM (inactive)	–	19.7 µM (inactive)	15 µM (inactive)	13.4 µM (inactive)
COc1ccc2c(c1)[n+]([O-])c(C(=O)C/C(=N/NC(=O)C[N+](C)(C)C)C(=O)Nc1cccc(C)c1C)c(C)[n+]2[O-]	67.1 µM (inactive)	> 100 µM (inactive)	> 100 µM (inactive)	59 µM (inactive)	> 100 µM (inactive)	> 100 µM (inactive)	> 100 µM (inactive)	> 100 µM (inactive)	> 100 µM (inactive)	–	> 100 µM (inactive)	> 100 µM (inactive)	> 100 µM (inactive)	> 100 µM (inactive)	6.34 µM (inactive)	> 100 µM (inactive)	> 100 µM (inactive)	–	–
Cc1ccc(S(=O)(=O)N2CCC3(C(/C=C/c4ccccc4)=Nc4ccccc43)C2c2ccccc2)cc1 (stereo not given)	> 100 µM (inactive)	> 100 µM (inactive)	> 100 µM (inactive)	> 100 µM (inactive)	> 100 µM (inactive)	> 100 µM (inactive)	> 100 µM (inactive)	63.5 µM (inactive)	> 100 µM (inactive)	–	37.9 µM (inactive)	> 100 µM (inactive)	> 100 µM (inactive)	> 100 µM (inactive)	> 100 µM (inactive)	–	1.41 µM (inactive)	> 100 µM (inactive)	> 100 µM (inactive)
COC(=O)OCC1OC(N2C(=O)NC(=O)C(Br)C2N=[N+]=[N-])CC1OC(=O)OC (stereo not given)	> 100 µM (inactive)	> 100 µM (inactive)	> 100 µM (inactive)	> 100 µM (inactive)	–	> 100 µM (inactive)	> 100 µM (inactive)	> 100 µM (inactive)	> 100 µM (inactive)	–	> 100 µM (inactive)	> 100 µM (inactive)	> 100 µM (inactive)	66.4 µM (inactive)	> 100 µM (inactive)	–	> 100 µM (inactive)	> 100 µM (inactive)	> 100 µM (inactive)
C=C(C)CCOC(c1ccccc1)(c1ccccc1)c1ccccc1	> 100 µM (inactive)	37.4 µM (inactive)	64.4 µM (inactive)	33.6 µM (inactive)	–	38.9 µM (inactive)	40.1 µM (inactive)	70.5 µM (inactive)	27.8 µM (inactive)	51.3 µM (inactive)	26.3 µM (inactive)	18.5 µM (inactive)	25.6 µM (inactive)	18.9 µM (inactive)	48.6 µM (inactive)	–	> 100 µM (inactive)	27.4 µM (inactive)	83.4 µM (inactive)
N#C/C(=C1\OC(=N)C(c2ccc(Cl)cc2)=C1O)c1ccc(Cl)cc1	2.99 µM (inactive)	15.8 µM (inactive)	14.8 µM (inactive)	17.9 µM (inactive)	17.7 µM (inactive)	20.5 µM (inactive)	14.2 µM (inactive)	19.1 µM (inactive)	13.6 µM (inactive)	17.3 µM (inactive)	10 µM (inactive)	12.4 µM (inactive)	17.1 µM (inactive)	12 µM (inactive)	16.6 µM (inactive)	–	15.7 µM (inactive)	–	26.4 µM (inactive)
COC1/C=C/C(C)C(C(C)C(OC)C(C)CCC(=O)C(C)C(C/C=C/N(C)C=O)OC)OC(=O)C=CC2OC2(C)CC(OC)C(OC)C2=CC(=O)O[C@@H](C(C)C(OC)CC(OC)/C=C/C(C)C(O)C1)[C@H]2O (stereo not given in full)	0.0105 µM (active)	0.00775 µM (active)	0.0108 µM (active)	0.0056 µM (active)	0.00562 µM (active)	0.00349 µM (active)	0.0201 µM (active)	0.00497 µM (active)	0.0239 µM (active)	0.00527 µM (active)	0.00615 µM (active)	0.0139 µM (active)	0.00569 µM (active)	0.00369 µM (active)	0.00708 µM (active)	0.0175 µM (active)	0.00106 µM (active)	0.0128 µM (active)	0.0119 µM (active)
COc1ccc(-c2[nH]c3ccccc3c2CCNS(=O)(=O)c2ccc(C)cc2)cc1	> 10 µM (inactive)	> 8.41 µM (inactive)	7.23 µM (inactive)	> 10 µM (inactive)	> 7.93 µM (inactive)	6.05 µM (inactive)	> 8.39 µM (inactive)	> 10 µM (inactive)	> 10 µM (inactive)	4.21 µM (inactive)	> 7.6 µM (inactive)	> 10 µM (inactive)	9.68 µM (inactive)	7.93 µM (inactive)	6.82 µM (inactive)	> 10 µM (inactive)	> 6.34 µM (inactive)	> 5.9 µM (inactive)	> 7.8 µM (inactive)
Cc1nc2ccccc2c(=O)n1-c1ccccc1F	> 100 µM (inactive)	> 100 µM (inactive)	> 100 µM (inactive)	> 100 µM (inactive)	> 100 µM (inactive)	> 100 µM (inactive)	> 100 µM (inactive)	> 100 µM (inactive)	> 100 µM (inactive)	> 100 µM (inactive)	> 100 µM (inactive)	> 100 µM (inactive)	> 100 µM (inactive)	> 100 µM (inactive)	> 100 µM (inactive)	> 100 µM (inactive)	> 100 µM (inactive)	> 100 µM (inactive)	> 100 µM (inactive)
CCCCCCCCCCCCCCCCCC[N+](C)(C)Cc1ccc(C[N+](C)(C)CCCCCCCCCCCCCCCCCC)cc1	32.9 µM (inactive)	11.3 µM (inactive)	7.01 µM (inactive)	5.26 µM (inactive)	18.9 µM (inactive)	13.6 µM (inactive)	21.9 µM (inactive)	4.41 µM (inactive)	4.09 µM (inactive)	21 µM (inactive)	5.53 µM (inactive)	2.71 µM (inactive)	26.2 µM (inactive)	2.97 µM (inactive)	12.4 µM (inactive)	24.1 µM (inactive)	16.6 µM (inactive)	22.8 µM (inactive)	13.6 µM (inactive)
C=C(CO)CC(O)c1cc(OC)ccc1OC (stereo not given)	> 100 µM (inactive)	> 100 µM (inactive)	> 100 µM (inactive)	> 100 µM (inactive)	> 100 µM (inactive)	> 100 µM (inactive)	> 100 µM (inactive)	> 100 µM (inactive)	–	> 100 µM (inactive)	> 100 µM (inactive)	> 100 µM (inactive)	> 100 µM (inactive)	> 100 µM (inactive)	> 100 µM (inactive)	> 100 µM (inactive)	> 100 µM (inactive)	> 100 µM (inactive)	> 100 µM (inactive)
CC12CC(c3ccccc3O1)C(C(=O)Nc1nccs1)C(=O)N2 (stereo not given)	> 100 µM (inactive)	> 100 µM (inactive)	> 100 µM (inactive)	84.3 µM (inactive)	35.7 µM (inactive)	> 100 µM (inactive)	> 100 µM (inactive)	> 100 µM (inactive)	> 100 µM (inactive)	> 100 µM (inactive)	> 100 µM (inactive)	> 100 µM (inactive)	> 100 µM (inactive)	> 100 µM (inactive)	> 100 µM (inactive)	> 100 µM (inactive)	> 100 µM (inactive)	> 100 µM (inactive)	> 100 µM (inactive)
Cc1nc(Nc2ccc(Cl)cc2)sc1C(=O)NNC(=S)NN	16.8 µM (inactive)	17.5 µM (inactive)	19.3 µM (inactive)	26.1 µM (inactive)	16.9 µM (inactive)	19 µM (inactive)	17.2 µM (inactive)	18.8 µM (inactive)	17.6 µM (inactive)	21.5 µM (inactive)	19.1 µM (inactive)	12.7 µM (inactive)	15.5 µM (inactive)	16.6 µM (inactive)	20.1 µM (inactive)	18.5 µM (inactive)	25.9 µM (inactive)	18.3 µM (inactive)	20.9 µM (inactive)
C=CC(=O)NCCSCCCOC1(C(=O)O)CC(O)C(NC(C)=O)C(C(O)C(O)CO)O1 (stereo not given)	> 100 µM (inactive)	> 100 µM (inactive)	> 100 µM (inactive)	> 100 µM (inactive)	–	> 100 µM (inactive)	> 100 µM (inactive)	–	> 100 µM (inactive)	> 100 µM (inactive)	> 100 µM (inactive)	> 100 µM (inactive)	> 100 µM (inactive)	> 100 µM (inactive)	> 100 µM (inactive)	> 100 µM (inactive)	> 100 µM (inactive)	–	> 100 µM (inactive)

— ChEMBL document CHEMBL1201862, “PubChem BioAssay data set” (2004)
